Experimental data published in patent US4469701A, “Pyrrolid-3-en-2-ones and pharmaceutical methods of use thereof” (Stauffer Chemical Company, priority 1983, dated 1984).

Tests used:
[1] = system: hypercholesterolemic mice; test: HP-betalipoprotein: serum heparin precipitating lipoprotein (HPL); assay type: in vivo, mouse; details: hypercholesterolemic mice
From the text: Reduction of serum heparin precipitating lipoprotein (HPL) concentrations (corresponding to low density lipoprotein and very low density lipoprotein fractions) in the same hypercholesterolemic mice from Test 6 above by more than 20% (>20) from control animals indicates activity.

[2] = system: hypercholesterolemic mice; test: Hypocholesterolemic: serum cholesterol in hypercholesterolemic mice; assay type: in vivo, mouse; details: hypercholesterolemic mice; for inhibition in vivo at 200 mg/kg: 2 oral doses of 200 mg/kg 20 hr. apart, significance >20, read-out: C = Hypocholesterolemic: percent decrease in serum cholesterol
Procedure: Mice made hypercholesterolemic by being fed a high cholesterol-cholic acid diet for 7 days were dosed on the sixth and seventh days, p.o. After fasting overnight, reduction in serum cholesterol concentration by more than 15% (>15) from hypercholesterolemic control mice indicates activity.
^4 C = Hypocholesterolemic. Percent decrease in serum cholesterol in
hypercholesterolemic mice given 2 oral doses of 200 mg/kg drug candidate

[3] = system: glucose-loaded mice; test: Hypoglycemic, glucose-loaded mice; assay type: in vivo, mouse
Procedure: Reduction in blood glucose concentration by more than 20% (>20) in fasted, glucose-loaded (1 gm/kg) mice one hour after dosing, p.o., indicates activity (test compound administered at same time as glucose load).
^5 H = Hypoglycemic. Percent decrease in serum glucose concentration
in glucose loaded mice hr. following a 100 mg/kg oral dose.

[4] = system: starch loaded mice; test: Carbohydrate (CHO) efficiency/hypoglycemic, starch loaded mice; assay type: in vivo, mouse
[5] = system: rats; test: Antiedema: carrageenan paw edema in rats; assay type: in vivo; details: Rattus norvegicus, po, 3 h, read-out: ED-100, antiedema
Procedure: Rats are dosed p.o. one hour before intraplantar injection of carrigeenan (0.1 ml, 1% susp.). Inhibition of paw edema by more than 30% (>30) 3 hours after carriegeenan injection indicates acute anti-edema activity.

[6] = system: mice; test: Peripheral anticholinergic: lacrimation and salivation in mice; assay type: in vivo; details: Mus musculus, ip, read-out: ED-100, peripheral anticholinergic
[7] = system: mice; test: Pupil dilation in mice; assay type: in vivo, mouse; details: i.p.
Procedure: If the pupil diameter of mice exceeds 1.0 mm (>1) in bright light 30 minutes after dosing, i.p., ganglionic blockage or anti-cholinergic activity is indicated in the absence of adrenergic action. The following are reference compounds and the doses thereof.

[8] = system: mice; test: Central anticholinergic: oxotremorine tremors in mice; details: Mus musculus, ip, 1 h, read-out: ED-100, central anticholinergic
[9] = system: rats; test: Antiulcer: stress induced gastric ulcers in rats; assay type: in vivo, rat; details: Rattus norvegicus; for inhibition in vivo at 50 mg/kg: 4 hr. following a 50 mg/kg oral dose in rats, significance >60, read-out: U = Antiulcerative: percent inhibition of stress ulcers
Procedure: Fasted rats were dosed, p.o., 30 minutes before immobilization in wire mesh and partial immersion in water for 4 hours. Inhibition of the resulting stress induced gastric ulcers by more than 60% (>60) indicates activity.
^6 U = Antiulcerative. Percent inhibition of stress ulcers 4 hr.
following a 50 mg/kg oral dose in rats.

[10] = Central nervous system (CNS) depression/effects; details: in vivo
[11] = system: rats; test: Bradycardia: heart rate by EKG in rats; assay type: in vivo, rat; details: Rattus norvegicus, 0.75 h; 45 min. after a 5 mg/kg oral dose in rats; significance >10; read-out: B = Bradycardiac: percent decrease in heart rate
Procedure: […] Decrease in heart rate by more than 10% (>10) is considered a bradycardic effect.
Percent decrease in heart rate 45 min. after a 5
mg/kg oral dose in rats.

[12] = system: mice; test: Acute toxicity / autonomic effects observation; details: mouse, in vivo
Procedure: Mice were dosed at 300 mg/kg, per oral (p.o.) and […], interperitoneal (i.p.) for observation of any acute toxic symptoms or autonomic effects during the subsequent 72 hours. If none were noted, pharmacological evaluation proceeded employing doses and concentrations for each test based on appropriate multiples of doses required by suitable reference compounds. If acute toxicity was observed initially, the minimal toxic dose was determined and pharmacological screening doses were reduced proportionately.

[13] = system: mice; test: Antiarrhythmic: chloroform-induced cardiac arrhythmia in mice; assay type: in vivo, mouse; details: for A = Antiarrythmic: mouse hearts fibrillating (of 3): 15 min. after a 200 mg/kg intraperitoneal dose, significance <2
Procedure: ^2 A = Antiarrythmic. Less than 2/3 mouse hearts fibrillating 15 min.

[14] = Anticholinergic properties (overall statement); details: in vivo
[15] = system: spontaneously hypertensive rats (SHR); test: Antihypertensive: blood pressure (tail cuff) in spontaneously hypertensive rats (SHR); assay type: in vivo, rat; details: for inhibition in vivo at 100 mg/kg: Rattus norvegicus, 6 hr. after a 100 mg/kg oral dose, significance >10, read-out: Antihypertensive: percent decrease in systolic blood pressure in spontaneously hypertensive rats
Procedure: Blood pressure was measured indirectly (tail cuff) in unanesthetized, unheated spontaneously hypertensive rats (SHR) before and 2, 4, and 6 hours after p.o. dosing. Reduction in mean pressure by more than 10% (>10) at any two consecutive measurement times after dosing indicates antihypertensive activity.

[16] = Overall pharmacological profile; details: in vivo
[17] = p.o., rats, reference compounds

CC(C)(Oc1ccc(CCNC(=O)c2ccc(Cl)cc2)cc1)C(=O)O [bezafibrate, reference compound]
ED100 ([1]; Mus musculus, po, reference compounds, read-out: ED-100, HP-betalipoprotein): 200 mg/kg | ED100 ([2]; Mus musculus, po, reference compounds, read-out: ED-100, hypocholesterolemic): 200 mg/kg

COc1ccc(Cl)cc1C(=O)NCCc1ccc(S(=O)(=O)NC(=O)NC2CCCCC2)cc1 [glibenclamide, reference compound]
ED100 ([3]; Mus musculus, po, 1 h, p.o., glucose-loaded mice, reference compounds, read-out: ED-100, hypoglycemic, mice): 1 mg/kg | ED100 ([4]; Mus musculus, 1 h, oral, reference compounds, read-out: ED-100, CHO efficiency/hypoglycemic): 1 mg/kg

CC(=O)Oc1ccccc1C(=O)O [aspirin]
ED100 [5]: 150 mg/kg

CN1[C@@H]2CC[C@H]1C[C@@H](OC(=O)C(CO)c1ccccc1)C2 (some centres unmarked) [atropine, reference compound]
ED100 [6]: 0.25 mg/kg | Reference dose, pupil dilation ([7]; reference compounds and the doses thereof): 0.25 mg/kg | ED100 [8]: 2 mg/kg | ED100 ([9]; po, read-out: ED-100, antiulcer): 5 mg/kg

CC(C)Cc1ccc(C(C)C(=O)O)cc1 (centres unmarked) [ibuprofen]
ED100 [5, 17]: 25 mg/kg

insulin
ED-100, hypoglycemic, mice (insulin) ([3]; s.c., glucose-loaded mice): 0.25 U | ED-100, CHO efficiency/hypoglycemic (insulin) ([4]; subcutaneous (s.c.)): 0.25 U

CC1(C)CCCC(C)(C)N1CC1=CC(=O)N(c2cccc(C(F)(F)F)c2)C1 [Compound 1]
H = Hypoglycemic: percent decrease in serum glucose concentration ([3]; glucose loaded mice, 100 mg/kg oral dose, significance >20): 14% | CNS depression / CNS effects [10]: absence of notable central nervous system (CNS) depression | inhibition in vivo at 5 mg/kg [11]: 14% | Acute toxicity / toxic effects [12]: apparent lack of acute toxicity | A = Antiarrythmic: mouse hearts fibrillating (of 3) [13]: 0 | Anticholinergic properties/effects [14]: absence of notable | inhibition in vivo at 100 mg/kg [15]: 19% | inhibition in vivo at 200 mg/kg ([2]; Mus musculus): 5% | inhibition in vivo at 50 mg/kg [9]: 75%

COc1ccc(N2CC(CN3C(C)(C)CCCC3(C)C)=CC2=O)cc1OC [Compound 12]
Profile (comparison with another compound) [16]: generally similar to that of Compound 6 | inhibition in vivo at 5 mg/kg [11]: 13% | A = Antiarrythmic: mouse hearts fibrillating (of 3) [13]: 2 | inhibition in vivo at 100 mg/kg [15]: 14% | inhibition in vivo at 200 mg/kg ([2]; Mus musculus): 3% | inhibition in vivo at 50 mg/kg [9]: 75%

CC1(C)CCCC(C)(C)N1CC1=CC(=O)N(c2cccc(Cl)c2)C1 [Compound 13]
CNS depression / CNS effects [10]: absence of CNS | inhibition in vivo at 5 mg/kg [11]: 1% | Acute toxicity / toxic effects [12]: absence | A = Antiarrythmic: mouse hearts fibrillating (of 3) [13]: 3 | Anticholinergic properties/effects [14]: absence | inhibition in vivo at 100 mg/kg [15]: 4% | inhibition in vivo at 200 mg/kg ([2]; Mus musculus): 13% | inhibition in vivo at 50 mg/kg [9]: 88%

c1cc(N2CCCCC2)ccc1OC12CC3CC(CC(C3)C1)C2 [Compound U-41792, reference compound]
ED-100, HP-betalipoprotein ([1]; reference compounds): 200 mg/kg | ED-100, hypocholesterolemic ([2]; p.o., reference compounds): 200 mg/kg

COc1ccc2cc([C@H](C)C(=O)O)ccc2c1 [naproxen]
ED100 [5, 17]: 5 mg/kg

C[C@]12CCC(=O)C=C1CC[C@@H]1[C@@H]2[C@@H](O)C[C@@]2(C)[C@H]1CC[C@]2(O)C(=O)CO [hydrocortisone]
ED100 [5]: 25 mg/kg

CCCCC1C(=O)N(c2ccccc2)N(c2ccccc2)C1=O [phenylbutazone]
ED100 [5, 17]: 50 mg/kg

Cc1cccc(N2CC(CN3C(C)(C)CCCC3(C)C)=CC2=O)c1 [Compound 4]
inhibition in vivo at 5 mg/kg [11]: 19% | Pupil dilation ([7]; 50 mg/kg): significantly dilated | HPL/cholesterol ratio ([1]; 400 mg/kg, p.o.): marked reduction | A = Antiarrythmic: mouse hearts fibrillating (of 3) [13]: 2 | Dose with borderline antiarrhythmic result ([13]; i.p., mice, chloroform arrhythmia): 100 mg/kg | inhibition in vivo at 100 mg/kg [15]: 23% | Antihypertensive activity, onset / comparison in words ([15]; p.o.): generally comparable to that of Compound 3 | Dose at which antihypertensive effects were decreasing ([15]; p.o.): 10 mg/kg | inhibition in vivo at 200 mg/kg ([2]; Mus musculus): 25% | inhibition in vivo at 50 mg/kg [9]: 75%
